Measured values reported in patent US8877759B2, “Aminopyrazines as ATR kinase inhibitors” (Vertex Pharnaceuticals Incorporated, priority 2011, dated 2014).

The molecules below were run against T1, full-length ATR (Homo sapiens, UniProt Q13535) (assay: ATR Inhibition Assay (radioactive-phosphate incorporation)). Conditions: not given.
T1 construct: Assays were carried out at 25° C. in the presence of 5 nM full-length ATR
Type: biochemical
Protocol: Compounds were screened for their ability to inhibit ATR kinase using a radioactive-phosphate incorporation assay. Assays were carried out in a mixture of 50 mM Tris/HCl (pH 7.5), 10 mM MgCl2 and 1 mM DTT.
Assays were carried out at 25° C. in the presence of 5 nM full-length ATR. An assay stock buffer solution was prepared containing all of the reagents listed above, with the exception of ATP and the test compound of interest. […] The plate was pre-incubated for 10 minutes at 25° C. and the reaction initiated by addition of 15 μL [γ-33P]ATP (final concentration 10 μM).
The reaction was stopped after […] by the addition of 30 μL 0.1M phosphoric acid containing 2 mM ATP. A multiscreen phosphocellulose filter 96-well plate (Millipore, Cat no. MAPHN0B50) was pretreated with 100 μL 0.2M phosphoric acid prior to the addition of 45 μL of the stopped assay mixture. The plate was washed with 5×200 μL 0.2M phosphoric acid.
After removing mean background values for all of the data points, Ki(app) data were calculated from non-linear regression analysis of the initial rate data using the Prism software package (GraphPad Prism version 3.0cx for Macintosh, GraphPad Software, San Diego Calif., USA).

T1 sequence (Q13535 whole entry): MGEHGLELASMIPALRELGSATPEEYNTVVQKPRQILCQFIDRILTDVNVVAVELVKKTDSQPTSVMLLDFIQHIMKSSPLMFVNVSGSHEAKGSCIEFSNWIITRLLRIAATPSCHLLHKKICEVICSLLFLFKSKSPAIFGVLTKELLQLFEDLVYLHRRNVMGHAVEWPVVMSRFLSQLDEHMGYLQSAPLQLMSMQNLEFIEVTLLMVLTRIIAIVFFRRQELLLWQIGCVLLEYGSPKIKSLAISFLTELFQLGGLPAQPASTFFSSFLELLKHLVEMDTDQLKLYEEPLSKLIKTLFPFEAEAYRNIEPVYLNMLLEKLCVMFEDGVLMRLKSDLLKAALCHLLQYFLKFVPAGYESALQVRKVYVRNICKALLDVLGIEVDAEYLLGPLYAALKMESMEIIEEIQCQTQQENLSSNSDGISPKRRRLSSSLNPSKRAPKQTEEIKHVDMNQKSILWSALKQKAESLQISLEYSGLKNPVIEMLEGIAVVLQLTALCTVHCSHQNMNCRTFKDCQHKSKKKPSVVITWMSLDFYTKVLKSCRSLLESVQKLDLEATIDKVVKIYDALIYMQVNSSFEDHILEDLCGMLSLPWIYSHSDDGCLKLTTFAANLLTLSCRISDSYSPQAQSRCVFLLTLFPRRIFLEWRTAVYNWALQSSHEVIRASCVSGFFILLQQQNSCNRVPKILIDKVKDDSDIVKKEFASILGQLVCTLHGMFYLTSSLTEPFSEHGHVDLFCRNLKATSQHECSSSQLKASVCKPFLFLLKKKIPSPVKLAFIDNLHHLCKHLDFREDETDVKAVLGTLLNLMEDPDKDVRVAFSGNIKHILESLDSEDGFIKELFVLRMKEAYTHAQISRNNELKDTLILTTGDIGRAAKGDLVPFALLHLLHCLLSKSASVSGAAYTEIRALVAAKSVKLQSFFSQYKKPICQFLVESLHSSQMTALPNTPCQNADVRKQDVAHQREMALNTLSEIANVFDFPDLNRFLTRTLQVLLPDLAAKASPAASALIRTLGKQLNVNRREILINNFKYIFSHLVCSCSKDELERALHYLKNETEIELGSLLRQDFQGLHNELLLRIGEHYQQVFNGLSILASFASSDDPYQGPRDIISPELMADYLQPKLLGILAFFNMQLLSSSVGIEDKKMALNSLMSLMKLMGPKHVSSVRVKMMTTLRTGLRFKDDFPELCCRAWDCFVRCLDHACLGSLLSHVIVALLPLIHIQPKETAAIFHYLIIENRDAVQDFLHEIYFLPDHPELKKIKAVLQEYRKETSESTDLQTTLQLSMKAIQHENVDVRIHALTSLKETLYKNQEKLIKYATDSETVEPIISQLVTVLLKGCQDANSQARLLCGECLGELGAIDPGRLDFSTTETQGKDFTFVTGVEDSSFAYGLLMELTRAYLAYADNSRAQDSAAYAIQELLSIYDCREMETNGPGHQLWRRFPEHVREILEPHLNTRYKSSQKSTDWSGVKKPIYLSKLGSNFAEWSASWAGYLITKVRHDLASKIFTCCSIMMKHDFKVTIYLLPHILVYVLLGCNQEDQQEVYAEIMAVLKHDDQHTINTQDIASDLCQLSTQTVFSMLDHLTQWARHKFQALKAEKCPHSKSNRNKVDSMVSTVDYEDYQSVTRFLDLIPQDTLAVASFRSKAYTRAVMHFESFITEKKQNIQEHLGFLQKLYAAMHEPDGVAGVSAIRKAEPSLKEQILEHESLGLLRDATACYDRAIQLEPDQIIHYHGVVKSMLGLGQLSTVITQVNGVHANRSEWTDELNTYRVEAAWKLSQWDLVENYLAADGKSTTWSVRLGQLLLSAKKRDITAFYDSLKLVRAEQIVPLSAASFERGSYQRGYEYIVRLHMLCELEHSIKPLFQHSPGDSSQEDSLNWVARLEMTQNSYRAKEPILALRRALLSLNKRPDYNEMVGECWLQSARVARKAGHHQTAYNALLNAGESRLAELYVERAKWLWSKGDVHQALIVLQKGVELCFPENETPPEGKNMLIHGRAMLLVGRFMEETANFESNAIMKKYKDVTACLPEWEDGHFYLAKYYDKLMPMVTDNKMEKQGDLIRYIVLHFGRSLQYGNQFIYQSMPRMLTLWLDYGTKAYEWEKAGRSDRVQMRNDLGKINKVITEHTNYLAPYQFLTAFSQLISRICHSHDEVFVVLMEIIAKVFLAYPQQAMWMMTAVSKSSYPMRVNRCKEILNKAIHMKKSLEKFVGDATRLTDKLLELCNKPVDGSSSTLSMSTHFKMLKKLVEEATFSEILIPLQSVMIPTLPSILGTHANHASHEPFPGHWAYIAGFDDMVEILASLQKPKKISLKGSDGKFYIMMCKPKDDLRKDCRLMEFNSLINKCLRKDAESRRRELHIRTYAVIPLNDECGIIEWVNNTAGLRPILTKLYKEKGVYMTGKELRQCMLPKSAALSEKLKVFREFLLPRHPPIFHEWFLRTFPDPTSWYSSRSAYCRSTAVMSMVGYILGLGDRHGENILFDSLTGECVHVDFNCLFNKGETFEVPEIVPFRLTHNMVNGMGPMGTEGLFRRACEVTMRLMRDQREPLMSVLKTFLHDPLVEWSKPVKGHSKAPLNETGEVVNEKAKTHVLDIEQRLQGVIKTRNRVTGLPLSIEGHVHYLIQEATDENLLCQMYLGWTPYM

SMILES	Ki
COC[C@@H](N)c1ccc(-c2nnc(-c3nc(-c4ccnc(C(C)(C)C#N)c4)cnc3N)o2)cc1 [Compound I-87]	< 1 nM
CC(C)(C#N)c1cc(-c2cnc(N)c(-c3nnc(-c4ccc(N5CC(N)C5)cc4)o3)n2)ccn1 [Compound I-123]	< 1 nM
CC(C)(C#N)c1cc(-c2cnc(N)c(-c3nnc(-c4ccc(CNC5CCCOC5)cc4)o3)n2)ccn1 (centres unmarked) [Compound I-122]	< 1 nM
CC(C)(C#N)c1cc(-c2cnc(N)c(-c3nnc(-c4ccc(CNC5CCOCC5)cc4)o3)n2)ccn1 [Compound I-126]	< 1 nM
CC(C)(C#N)c1cc(-c2cnc(N)c(-c3nnc(-c4ccc(CCN)cc4)o3)n2)ccn1 [Compound I-57]	< 1 nM

Results, then the molecule that gave them:

Ki	SMILES
20 to 100 nM	CC(C)(C#N)c1cc(-c2cnc(N)c(-c3nnc(-c4ccc(C5COCCN5)cc4)o3)n2)ccn1 (centres unmarked) [Compound I-99]
< 1 nM	C[C@H](N)c1ccc(-c2nnc(-c3nc(-c4ccnc(C5(C#N)CCC5)c4)cnc3N)o2)cc1 [Compound I-43, 1-[4-[5-amino-6-[5-[4-[(1S)-1-aminoethyl]phenyl]-1,3,4-oxadiazol-2-yl]pyrazin-2-yl]-2-pyridyl]cyclobutanecarbonitrile]
< 1 nM	CC(C)(C#N)c1cc(-c2cnc(N)c(-c3nnc(-c4ccc(N5CC[C@H](N)C5)cc4)o3)n2)ccn1 [Compound I-88]
< 1 nM	CC(C)(C#N)c1cc(-c2cnc(N)c(-c3nnc(-c4ccc(C5=CCNCC5)cc4)o3)n2)ccn1 [Compound I-128]
< 1 nM	N#CC1(c2cc(-c3cnc(N)c(-c4cc(-c5ccc(CN[C@H]6CCOC6)cc5)no4)n3)ccn2)CCCC1 [Compound I-36, 1-[4-[5-amino-6-[3-[4-[[[(3S)-tetrahydrofuran-3-yl]amino]methyl]phenyl]isoxazol-5-yl]pyrazin-2-yl]-2-pyridyl]cyclopentanecarbonitrile]
< 1 nM	CC(C#N)c1cc(-c2cnc(N)c(-c3cc(-c4ccccc4)no3)n2)ccn1 (centres unmarked) [Compound I-50, 2-[4-[5-amino-6-(3-phenylisoxazol-5-yl)pyrazin-2-yl]-2-pyridyl]propanenitrile]
< 1 nM	N#CC1(c2cc(-c3cnc(N)c(-c4cc(-c5cccs5)no4)n3)ccn2)CCNCC1 [Compound I-30, 4-[4-[5-amino-6-[3-(2-thienyl)isoxazol-5-yl]pyrazin-2-yl]-2-pyridyl]piperidine-4-carbonitrile]
5 to 20 nM	CC(C)(C#N)c1cc(-c2cnc(N)c(-c3nnc(-c4cccc(C5CCCN5)c4)o3)n2)ccn1 (centres unmarked) [Compound I-89]
< 1 nM	CC(C)(C#N)c1cc(-c2cnc(N)c(-c3nnc(-c4cccc(N5CC[C@@H](N)C5)c4)o3)n2)ccn1 [Compound I-77]
< 1 nM	CC(C)(C#N)c1cc(-c2cnc(N)c(-c3nnc(-c4ccc(NC5CNC5)cc4)o3)n2)ccn1 [Compound I-107]
< 1 nM	N#CC1(c2cc(-c3cnc(N)c(-c4cc(-c5ccccc5)no4)n3)ccn2)CCOCC1 [Compound I-7, 4-[4-[5-amino-6-(3-phenylisoxazol-5-yl)pyrazin-2-yl]-2-pyridyl]tetrahydropyran-4-carbonitrile]

Same assay, conditions: Ki(app); 5 nM full-length ATR, 10 μM [γ-33P]ATP, 800 μM target peptide, 25° C.

SMILES	ATR Ki
CC(C)(C#N)c1cc(-c2cnc(N)c(-c3nnc(-c4cccc(NC5CNC5)c4)o3)n2)ccn1 [Compound I-84]	+++ (Compounds with a Ki value >5 nM but ≦1 nM are marked with “+++.”)
CC(C)(c1cc(-c2cnc(N)c(-c3cc(-c4ccccc4)no3)n2)ccn1)S(=O)(=O)C1CCNCC1 [Compound I-23, 5-[2-[1-methyl-1-(4-piperidylsulfonyl)ethyl]-4-pyridyl]-3-(3-phenylisoxazol-5-yl)pyrazin-2-amine]	+++ (Compounds with a Ki value >5 nM but ≦1 nM are marked with “+++.”)
CC(C)(C#N)c1cc(-c2cnc(N)c(-c3nnc(-c4ccc(C5CNCCN5)cc4)o3)n2)ccn1 (centres unmarked) [Compound I-82]	+++ (Compounds with a Ki value >5 nM but ≦1 nM are marked with “+++.”)
CC(C)(C#N)c1cc(-c2cnc(N)c(-c3nnc(-c4ccc(N5CCC5)cc4)o3)n2)ccn1 [Compound I-118]	+++ (Compounds with a Ki value >5 nM but ≦1 nM are marked with “+++.”)
